Measured values published in patent US10947244B2, “Forms of a PI3K delta selective inhibitor for use in pharmaceutical formulations” (Rhizen Pharmaceuticals SA, priority 2014, dated 2021).

Test: Particle size (PSD) analysis, Malvern Master Sizer 2000 dry powder
Assay type: physicochemical
Conditions: PTSA salt of TGR-1202; average of three experiments
Procedure: Particle size (PSD) analysis of the PTSA salts of TGR-1202 prepared in Examples 1 and 2 was performed as described below using a Malvern Master Sizer 2000 with the Scirocco 2000 dry powder system. The instrument parameters were: • Particle RI: 1.50 • Absorption index: 0.1 • Obscuration range: 1-5% • Analysis Model: General purpose • Sensitivity: Normal • Air Pressure: 2.0 Bar • Feed rate: 30% • Sample measurement Time: 6 Second • Background measurement Time: 6 Second • Number of measurement cycle: 1
Procedure: 5 g of TGR-1202 was transferred into a sample measuring cell (i.e., Scirocco 2000) and the airflow was started. Laser intensity was maintained more than 70%. Measurement was started and the vibration feed rate was increased in order to achieve the obscuration within the limits. Once the obscuration came within the limit, measurement was recorded. Analysis was performed in triplicate and the results provided are an average of three experiments.

| Compound | d(0.1) [μm] | d(0.5) [μm] | d(0.9) [μm] |
| --- | --- | --- | --- |
| CC(C)Oc1ccc(-c2nn([C@@H](C)c3oc4ccc(F)cc4c(=O)c3-c3cccc(F)c3)c3ncnc(N)c23)cc1F [Example 1, (S)-2-(1-(4-amino-3-(3-fluoro-4-isopropoxyphenyl)-1H-pyrazolo[3,4-d]pyrimidin-1-yl)ethyl)-6-fluoro-3-(3-fluorophenyl)-4H-chromen-4-one 4-methyl-benzenesulfonate] | 8.01 | 147.41 | 510.73 |
| CC(C)Oc1ccc(-c2nn([C@@H](C)c3oc4ccc(F)cc4c(=O)c3-c3cccc(F)c3)c3ncnc(N)c23)cc1F [Example 2, (S)-2-(1-(4-amino-3-(3-fluoro-4-isopropoxyphenyl)-1H-pyrazolo[3,4-d]pyrimidin-1-yl)ethyl)-6-fluoro-3-(3-fluorophenyl)-4H-chromen-4-one 4-methyl-benzenesulfonate] | 1.07 | 3.98 | 12.18 |
